From ChEMBL document CHEMBL3608308, “Design, synthesis and antiproliferative activity of novel heterobivalent hybrids based on imidazo[2,1-b][1,3,4]thiadiazole and imidazo[2,1-b][1,3]thiazole scaffolds” (Eur J Med Chem, 2015)
The source made the active and inactive calls. The rule behind the calls is not given here.

Columns and labels:
SK-MEL-1 = assay: Cytotoxicity against human SK-MEL-1 cells assessed as reduction in cell viability incubated for 72 hrs by MTT assay; format: functional, cell-based; conditions: for IC50: SK-MEL-1, 72 h
U-937 [1] = assay: Induction of apoptosis in human U937 cells over-expressing human Bcl-2 assessed as induction of cell shrinkage at 3 uM incubated for 8 hrs by Hoechst 33258 staining based fluorescent microscopy; format: functional
U-937 [2] = assay: Induction of apoptosis in human U937 cells assessed as induction of increase in apoptotic bodies at 3 uM incubated for 8 hrs by Hoechst 33258 staining based fluorescent microscopy; format: functional, cell-based
HL-60 [3] = assay: Induction of apoptosis in human HL60 cells assessed as hypodiploid cells level at 1 uM incubated for 24 hrs by propidium iodide staining based flow cytometry (reference value: 2.6 +/- 0.6%); format: functional
U-937 [4] = assay: Induction of apoptosis in human U937 cells assessed as induction of cell shrinkage at 3 uM incubated for 8 hrs by Hoechst 33258 staining based fluorescent microscopy; format: functional
U-937 [5] = assay: Induction of apoptosis in human U937 cells assessed as induction of morphological changes by inverted phase contrast microscopy; format: functional, cell-based
FM3A = assay: Antiproliferative activity against mouse FM3A cells assessed as inhibition of cell proliferation incubated for 2 days by Coulter counter based assay; format: functional; conditions: 48 h
U-937 [6] = assay: Induction of apoptosis in human U937 cells assessed as increase in cytochrome c release into cytosol at 3 uM incubated for 8 hrs by immunoblot method; format: functional, cell-based
L1210 [7] = assay: Antiproliferative activity against mouse L1210 cells assessed as inhibition of cell proliferation incubated for 2 days by Coulter counter based assay; format: functional; conditions: L1210, 48 h
HL-60 [8] = assay: Cytotoxicity against human HL60 cells assessed as reduction in cell viability incubated for 72 hrs by MTT assay; format: functional, cell-based; conditions: for IC50: HL-60, 72 h
U-937 [9] = assay: Induction of apoptosis in human U937 cells assessed as cleavage of pro-caspase-9 at 3 uM incubated for 8 hrs by immunoblot method; format: functional, cell-based
U-937 [10] = assay: Induction of apoptosis in human U937 cells assessed as induction of increase in condensed and fragmented chromatin at 3 uM incubated for 8 hrs by Hoechst 33258 staining based fluorescent microscopy; format: functional, cell-based
U-937 [11] = assay: Induction of apoptosis in human U937 cells over-expressing human Bcl-2 assessed as induction of increase in apoptotic bodies at 3 uM incubated for 8 hrs by Hoechst 33258 staining based fluorescent microscopy; format: functional, cell-based
HL-60 [12] = assay: Induction of apoptosis in human HL60 cells assessed as cleavage of pro-caspase-8 at 3 uM incubated for 8 hrs by immunoblot method; format: functional, cell-based
U-937 [13] = assay: Cytotoxicity against human U937 cells over-expressing human Bcl-2 assessed as reduction in cell viability incubated for 72 hrs by MTT assay; format: functional, cell-based; conditions: for IC50: U-937, 72 h
U-937 [14] = assay: Induction of apoptosis in human U937 cells assessed as cleavage of pro-caspase-8 at 3 uM incubated for 8 hrs by immunoblot method; format: functional, cell-based
CCRF-CEM = assay: Antiproliferative activity against human CEM cells assessed as inhibition of cell proliferation incubated for 3 days by Coulter counter based assay; format: functional; conditions: 72 h
U-937 [15] = assay: Induction of apoptosis in human U937 cells assessed as cleavage of pro-caspase-3 at 3 uM incubated for 8 hrs by immunoblot method; format: functional, cell-based
U-937 [16] = assay: Induction of apoptosis in human U937 cells over-expressing human Bcl-2 assessed as induction of morphological changes by inverted phase contrast microscopy; format: functional, cell-based
HL-60 [17] = assay: Induction of apoptosis in human HL60 cells assessed as cleavage of pro-caspase-3 at 3 uM incubated for 8 hrs by immunoblot method; format: functional, cell-based
U-937 [18] = assay: Induction of apoptosis in human U937 cells over-expressing human Bcl-2 assessed as induction of increase in condensed and fragmented chromatin at 3 uM incubated for 8 hrs by Hoechst 33258 staining based fluorescent microscopy; format: functional, cell-based
HeLa = assay: Antiproliferative activity against human HeLa cells assessed as inhibition of cell proliferation incubated for 4 days by Coulter counter based assay; format: functional; conditions: 96 h
U-937 [19] = assay: Induction of apoptosis in human U937 cells over-expressing human Bcl-2 assessed as increase in cytochrome c release into cytosol at 3 uM incubated for 8 hrs by immunoblot method; format: functional, cell-based
HL-60 [20] = assay: Induction of apoptosis in human HL60 cells assessed as increase in cytochrome c release into cytosol at 3 uM incubated for 8 hrs by immunoblot method; format: functional, cell-based
U-937 [21] = assay: Cytotoxicity against human U937 cells assessed as reduction in cell viability incubated for 72 hrs by MTT assay; format: functional, cell-based; conditions: for IC50: U-937, 72 h
HL-60 [22] = assay: Induction of apoptosis in human HL60 cells assessed as cleavage of pro-caspase-3/7 activity at 3 uM incubated for 8 hrs DEVD-pNA chromogenic substrate proteolytic cleavage assay; format: functional
HL-60 [23] = assay: Induction of apoptosis in human HL60 cells assessed as induction of morphological changes by inverted phase contrast microscopy; format: functional, cell-based
HL-60 [24] = assay: Induction of apoptosis in human HL60 cells assessed as hypodiploid cells level at 1 uM incubated for 24 hrs by propidium iodide staining based flow cytometry relative to untreated control; format: functional
HL-60 [25] = assay: Induction of DNA laddering in human HL60 cells at 3 to 10 uM incubated for 24 hrs by ethidium bromide staining based gel electrophoresis method; format: functional, cell-based
HL-60 [26] = assay: Induction of apoptosis in human HL60 cells assessed as cleavage of pro-caspase-9 at 3 uM incubated for 8 hrs by immunoblot method; format: functional, cell-based
HL-60 [27] = assay: Induction of apoptosis in human HL60 cells assessed as hypodiploid cells level at 1 and 10 uM incubated for 24 hrs by propidium iodide staining based flow cytometry; format: functional, cell-based
L1210 [28] = assay: Cytotoxicity against mouse L1210 cells; format: functional, cell-based

Compound	Activity (SK-MEL-1)	IC50 (SK-MEL-1)	Activity (U-937 [1])	Activity (U-937 [2])	Activity (HL-60 [3])	Activity (U-937 [4])	Activity (U-937 [5])	IC50 (FM3A)	Activity (U-937 [6])	IC50 (L1210 [7])	Activity (HL-60 [8])	IC50 (HL-60 [8])	Activity (U-937 [9])	Activity (U-937 [10])	Activity (U-937 [11])	Activity (HL-60 [12])	Activity (U-937 [13])	IC50 (U-937 [13])	Activity (U-937 [14])	IC50 (CCRF-CEM)	other results
C=C(Br)C(=O)Nc1cccc(-c2cn3nc(-c4ccc(F)cc4)sc3n2)c1	Dose-dependent effect	1100 nM	Active	Active	12.1%	Active	Active	610 nM	Active	250 nM	Dose-dependent effect	530 nM	Active	Active	Active	Active	Dose-dependent effect	370 nM	Active	830 nM	Activity (U-937 [15]): Active; Activity (U-937 [16]): Active; Activity (HL-60 [17]): Active; Activity (U-937 [18]): Active; IC50 (HeLa): 870 nM; Activity (U-937 [19]): Active; Activity (HL-60 [20]): Active; Activity (U-937 [21]): Dose-dependent effect; IC50 (U-937 [21]): 560 nM; fold change (FC) (HL-60 [22]): 2.3; Activity (HL-60 [23]): Active; fold change (FC) (HL-60 [24]): 4.6; Activity (HL-60 [25]): inactive; Activity (HL-60 [26]): Active; Activity (HL-60 [27]): Dose-dependent effect
C=C(Br)C(=O)Nc1cccc(-c2cn3nc(-c4cccs4)sc3n2)c1	Dose-dependent effect	690 nM	Active	Active	14.5%	Active	Active	370 nM	Active	170 nM	Dose-dependent effect	380 nM	Active	Active	Active	Active	Dose-dependent effect	270 nM	Active	410 nM	Activity (U-937 [15]): Active; Activity (U-937 [16]): Active; Activity (HL-60 [17]): Active; Activity (U-937 [18]): Active; IC50 (HeLa): 670 nM; Activity (U-937 [19]): Active; Activity (HL-60 [20]): Active; Activity (U-937 [21]): Dose-dependent effect; IC50 (U-937 [21]): 570 nM; fold change (FC) (HL-60 [22]): 3; Activity (HL-60 [23]): Active; fold change (FC) (HL-60 [24]): 5.6; Activity (HL-60 [25]): inactive; Activity (HL-60 [26]): Active; Activity (HL-60 [27]): Dose-dependent effect
C=C(Br)C(=O)Nc1cccc(-c2cn3c(-c4ccc(OC)cc4)csc3n2)c1	Dose-dependent effect	1000 nM	Active	Active	11.1%	Active	Active	620 nM	Active	200 nM	Dose-dependent effect	610 nM	Active	Active	Active	Active	Dose-dependent effect	370 nM	Active	500 nM	Activity (U-937 [15]): Active; Activity (U-937 [16]): Active; Activity (HL-60 [17]): Active; Activity (U-937 [18]): Active; IC50 (HeLa): 860 nM; Activity (U-937 [19]): Active; Activity (HL-60 [20]): Active; Activity (U-937 [21]): Dose-dependent effect; IC50 (U-937 [21]): 630 nM; fold change (FC) (HL-60 [22]): 3.8; Activity (HL-60 [23]): Active; fold change (FC) (HL-60 [24]): 4; Activity (HL-60 [25]): inactive; Activity (HL-60 [26]): Active; Activity (HL-60 [27]): Dose-dependent effect
C=C(Br)C(=O)O																					IC50 (L1210 [28]): > 120000 nM
C=C(Br)C(=O)Nc1cccc(-c2cn3nc(-c4ccc(OC)c(OC)c4)sc3n2)c1	Dose-dependent effect	770 nM	Active	Active	16%	Active	Active	110 nM	Active	42 nM	Dose-dependent effect	210 nM	Active	Active	Active	Active	Dose-dependent effect	210 nM	Active	380 nM	Activity (U-937 [15]): Active; Activity (U-937 [16]): Active; Activity (HL-60 [17]): Active; Activity (U-937 [18]): Active; IC50 (HeLa): 610 nM; Activity (U-937 [19]): Active; Activity (HL-60 [20]): Active; Activity (U-937 [21]): Dose-dependent effect; IC50 (U-937 [21]): 270 nM; fold change (FC) (HL-60 [22]): 3.2; Activity (HL-60 [23]): Active; fold change (FC) (HL-60 [24]): 6; Activity (HL-60 [25]): inactive; Activity (HL-60 [26]): Active; Activity (HL-60 [27]): Dose-dependent effect
